Test results published in patent US5140018A, “1,3,2-benzodithiazole-1-oxide compounds” (Abbott Laboratories, priority 1991, dated 1992).
Values after ≈ are worked out from the molar mass of the structure shown. Like-named read-outs stand apart in the source and are kept apart here.

Legend:
Type in all cases: cell-based
Candida albicans CCH 442 = experiment: In vitro antifungal MIC, Candida albicans CCH 442; conditions: Candida albicans CCH 442, 35°-37° C., 48 hours
Protocol: (§1) The in vitro antifungal activity of the compounds of the present invention against a variety of fungiwas determined as follow: Test medium was prepared by dissolving first 5 g of dextrose and then 6.7 g of Bacto Yeast Nitrogen Base® (commercially available from Difco Laboratories) in 100 mL of distilled water. The solution was filter-sterilized and diluted 1:10 with 0.01M pH 8.0 phosphate buffer solution, and the final pH of the medium adjusted to about pH 7.0 when necessary with either 0.1N hydrochloric acid solution of 0.1N sodium hydroxide solution. […] These concentrated stock solutions were diluted to a concentration of 200 μg/mL (twice the highest concentration desired for testing) with the test medium. Amphotericin B, similarly prepared, was used as a reference antifungal agent.
(§2) The test organisms were then inoculated into test tubes containing approximately 3 to 10 mL of test medium and the test tubes incubated overnight at 37° C. A sample of each overnight culture was placed in a test tube and diluted using the test medium until a reading of 95% transmittance was obtained in a conventional UV/visible spectrophotometer set to 560 nm. The adjusted cultures were then diluted 1:50 with test medium. These diluted cultures served as the inocula for the assays which follow and were used within 15 minutes of preparation.
(§3) Next, 2-fold serial dilutions of each test compound in test medium were prepared in a 96-well microtiter plate using calibrated microdiluters attached to an automatic (hand-held) diluter (available from Dynatech Laboratories).
(§4) Using sterile calibrated droppers or a multi-point dispenser, the diluted inoculum suspension was added to each of the wells in the plate. When inoculation was complete, the microtiter tray was covered with a plastic plate sealer to minimize evaporation. After the plate had been sealed, a hole was made above each well with a sterile 26-gauge syringe needle in order to allow gas exchange. If plate sealers were not available, the microtiter trays were stacked in groups of five or less with an empty tray on top. The microtiter trays were then incubated in a humidified chamber at 35°-37° C. for 48 hours or until growth was visible in the growth control wells.
(§5) The minimum inhibitory concentration (MIC) was defined as the lowest concentration of test compound yielding no growth, a slight haze or sparsely isolated colonies on the inoculum spot as compared to the growth control containing no test compound.

[1] = test system: Cryptococcus albidus ATCC 34140; experiment: In vitro antifungal MIC, Cryptococcus albidus ATCC 34140; conditions: Cryptococcus albidus ATCC 34140, 35°-37° C., 48 hours
Protocol: as §1, §2, §3, §4, §5

[2] = test system: Aspergillus niger ATCC 16404; experiment: In vitro antifungal MIC, Aspergillus niger ATCC 16404; conditions: Aspergillus niger ATCC 16404, 35°-37° C., 48 hours
Protocol: as §1, §2, §3, §4, §5

[3] = test system: Candida tropicalis NRRL-Y-112; experiment: In vitro antifungal MIC, Candida tropicalis NRRL-Y-112; conditions: Candida tropicalis NRRL-Y-112, 35°-37° C., 48 hours
Protocol: as §1, §2, §3, §4, §5

[4] = test system: Candida albicans ATCC 38247; experiment: In vitro antifungal MIC, Candida albicans ATCC 38247; conditions: Candida albicans ATCC 38247, 35°-37° C., 48 hours
Protocol: as §1, §2, §3, §4, §5

[5] = test system: Candida albicans ATCC 62376; experiment: In vitro antifungal MIC, Candida albicans ATCC 62376; conditions: Candida albicans ATCC 62376, 35°-37° C., 48 hours
Protocol: as §1, §2, §3, §4, §5

[6] = test system: Torulopsis glabrata ATCC 15545; experiment: In vitro antifungal MIC, Torulopsis glabrata ATCC 15545; conditions: Torulopsis glabrata ATCC 15545, 35°-37° C., 48 hours
Protocol: as §1, §2, §3, §4, §5

[7] = test system: Candida albicans ATCC 10231; experiment: In vitro antifungal MIC, Candida albicans ATCC 10231; conditions: Candida albicans ATCC 10231, 35°-37° C., 48 hours
Protocol: as §1, §2, §3, §4, §5

Candida kefyr ATCC 28838 = experiment: In vitro antifungal MIC, Candida kefyr ATCC 28838; conditions: Candida kefyr ATCC 28838, 35°-37° C., 48 hours
Protocol: as §1, §2, §3, §4, §5

Candida albicans 579A = experiment: In vitro antifungal MIC, Candida albicans 579A; conditions: Candida albicans 579A, 35°-37° C., 48 hours
Protocol: as §1, §2, §3, §4, §5

[8] = Naganishia albida, ATCC34140, read-out: MIC
[9] = Nakaseomyces glabratus, ATCC15545, read-out: MIC
[10] = Kluyveromyces marxianus, ATCC28838, read-out: MIC

Molecule: [O-][S+]1c2ccccc2SN1Cc1cccs1 (stereo not drawn) [Example 34, 2-(2-thienyl)methyl-1,3,2-benzodithiazole-1-oxide]
- MIC (Candida albicans CCH 442; CCH442, read-out: MIC): 0.78 mg/L (≈ 2.92 µM)
- MIC [1, 8]: 6.25 mg/L (≈ 23.4 µM)
- MIC ([2]; ATCC16404, read-out: MIC): 0.39 mg/L (≈ 1.46 µM)
- MIC ([3]; NRRLY112, read-out: MIC): 50 mg/L (≈ 187 µM)
- MIC ([4]; ATCC38247, read-out: MIC): 1.56 mg/L (≈ 5.83 µM)
- MIC ([5]; ATCC62376, read-out: MIC): 0.78 mg/L (≈ 2.92 µM)
- MIC [6, 9]: 50 mg/L (≈ 187 µM)
- MIC ([7]; ATCC10231, read-out: MIC): 1.56 mg/L (≈ 5.83 µM)
- MIC (Candida kefyr ATCC 28838; [10]): 0.78 mg/L (≈ 2.92 µM)
- MIC (Candida albicans 579A; read-out: MIC): 0.78 mg/L (≈ 2.92 µM)

Molecule: [O-][S+]1c2ccccc2SN1Cc1ccccc1 (stereo not drawn) [Example 35, 2-benzyl-1,3,2-benzodithiazole-1-oxide]
- MIC (Candida albicans CCH 442; CCH442, read-out: MIC): 0.78 mg/L (≈ 2.98 µM)
- MIC [1, 8]: 6.25 mg/L (≈ 23.9 µM)
- MIC ([2]; ATCC16404, read-out: MIC): 0.39 mg/L (≈ 1.49 µM)
- MIC ([3]; NRRLY112, read-out: MIC): 1.56 mg/L (≈ 5.97 µM)
- MIC ([4]; ATCC38247, read-out: MIC): 6.25 mg/L (≈ 23.9 µM)
- MIC ([5]; ATCC62376, read-out: MIC): 0.78 mg/L (≈ 2.98 µM)
- MIC [6, 9]: 1.56 mg/L (≈ 5.97 µM)
- MIC ([7]; ATCC10231, read-out: MIC): 0.78 mg/L (≈ 2.98 µM)
- MIC (Candida kefyr ATCC 28838; [10]): 0.39 mg/L (≈ 1.49 µM)
- MIC (Candida albicans 579A; read-out: MIC): 0.78 mg/L (≈ 2.98 µM)

Molecule: [O-][S+]1c2ccccc2SN1CCc1ccccc1 (stereo not drawn) [Example 1, 2-(2-Phenylethyl)-1,3,2-benzodithiazole-1-oxide]
- MIC (Candida albicans CCH 442; CCH442, read-out: MIC): 1.56 mg/L (≈ 5.66 µM)
- MIC [1, 8]: 3.12 mg/L (≈ 11.3 µM)
- MIC ([2]; ATCC16404, read-out: MIC): 3.12 mg/L (≈ 11.3 µM)
- MIC ([3]; NRRLY112, read-out: MIC): 3.12 mg/L (≈ 11.3 µM)
- MIC ([4]; ATCC38247, read-out: MIC): 1.56 mg/L (≈ 5.66 µM)
- MIC ([5]; ATCC62376, read-out: MIC): 0.78 mg/L (≈ 2.83 µM)
- MIC [6, 9]: 1.56 mg/L (≈ 5.66 µM)
- MIC ([7]; ATCC10231, read-out: MIC): 0.78 mg/L (≈ 2.83 µM)
- MIC (Candida kefyr ATCC 28838; [10]): 0.78 mg/L (≈ 2.83 µM)
- MIC (Candida albicans 579A; read-out: MIC): 0.39 mg/L (≈ 1.42 µM)

Molecule: [O-][S+]1c2ccccc2SN1c1ccccc1 (stereo not drawn) [Example 30, 2-phenyl-1,3,2-benzodithiazole-1-oxide]
- MIC (Candida albicans CCH 442; CCH442, read-out: MIC): 25 mg/L (≈ 101 µM)
- MIC [1, 8]: 25 mg/L (≈ 101 µM)
- MIC ([2]; ATCC16404, read-out: MIC): 12.5 mg/L (≈ 50.5 µM)
- MIC ([3]; NRRLY112, read-out: MIC): 25 mg/L (≈ 101 µM)
- MIC ([4]; ATCC38247, read-out: MIC): 25 mg/L (≈ 101 µM)
- MIC ([5]; ATCC62376, read-out: MIC): 25 mg/L (≈ 101 µM)
- MIC [6, 9]: 25 mg/L (≈ 101 µM)
- MIC ([7]; ATCC10231, read-out: MIC): 25 mg/L (≈ 101 µM)
- MIC (Candida kefyr ATCC 28838; [10]): 12.5 mg/L (≈ 50.5 µM)
- MIC (Candida albicans 579A; read-out: MIC): 12.5 mg/L (≈ 50.5 µM)

Molecule: CCCN1Sc2ccccc2[S+]1[O-] (stereo not drawn) [Example 3, 2-n-propyl-1,3,2-benzodithiazole-1-oxide]
- MIC (Candida albicans CCH 442; CCH442, read-out: MIC): 0.78 mg/L (≈ 3.66 µM)
- MIC [1, 8]: 3.12 mg/L (≈ 14.6 µM)
- MIC ([2]; ATCC16404, read-out: MIC): 6.25 mg/L (≈ 29.3 µM)
- MIC ([3]; NRRLY112, read-out: MIC): 0.78 mg/L (≈ 3.66 µM)
- MIC ([4]; ATCC38247, read-out: MIC): 3.12 mg/L (≈ 14.6 µM)
- MIC ([5]; ATCC62376, read-out: MIC): 0.78 mg/L (≈ 3.66 µM)
- MIC [6, 9]: 0.78 mg/L (≈ 3.66 µM)
- MIC ([7]; ATCC10231, read-out: MIC): 0.78 mg/L (≈ 3.66 µM)
- MIC (Candida kefyr ATCC 28838; [10]): 0.2 mg/L (≈ 0.938 µM)
- MIC (Candida albicans 579A; read-out: MIC): 0.78 mg/L (≈ 3.66 µM)

Molecule: 2-phenylmethyl-5-methyl-1,3,2-benzodithiazole-1-oxide; 2-phenylmethyl-6-methyl-1,3,2-benzodithiazole-1-oxide [Example 41]
- MIC (Candida albicans CCH 442): 3.12 mg/L
- MIC [1]: 6.25 mg/L
- MIC [2]: 1.56 mg/L
- MIC [3]: 3.12 mg/L
- MIC [4]: 0.39 mg/L
- MIC [5]: 1.56 mg/L
- MIC [6]: 3.12 mg/L
- MIC [7]: 1.56 mg/L
- MIC (Candida kefyr ATCC 28838): 0.78 mg/L
- MIC (Candida albicans 579A): 0.78 mg/L

Molecule: COC(=O)CCCCCCCN1Sc2ccccc2[S+]1[O-] (stereo not drawn) [Example 26]
- MIC (Candida albicans CCH 442; CCH442, read-out: MIC): 3.12 mg/L (≈ 9.53 µM)
- MIC [1, 8]: 6.25 mg/L (≈ 19.1 µM)
- MIC ([2]; ATCC16404, read-out: MIC): 0.78 mg/L (≈ 2.38 µM)
- MIC ([3]; NRRLY112, read-out: MIC): 3.12 mg/L (≈ 9.53 µM)
- MIC ([4]; ATCC38247, read-out: MIC): 12.5 mg/L (≈ 38.2 µM)
- MIC ([5]; ATCC62376, read-out: MIC): 1.56 mg/L (≈ 4.76 µM)
- MIC [6, 9]: 3.12 mg/L (≈ 9.53 µM)
- MIC ([7]; ATCC10231, read-out: MIC): 1.56 mg/L (≈ 4.76 µM)
- MIC (Candida kefyr ATCC 28838; [10]): 0.78 mg/L (≈ 2.38 µM)
- MIC (Candida albicans 579A; read-out: MIC): 3.12 mg/L (≈ 9.53 µM)

Molecule: CN(C)c1ccc(CN2Sc3ccccc3[S+]2[O-])cc1 (stereo not drawn) [Example 37, 2-(4-(dimethylamino)phenyl)methyl-1,3,2-benzodithiazole-1-oxide]
- MIC (Candida albicans CCH 442; CCH442, read-out: MIC): 6.25 mg/L (≈ 20.5 µM)
- MIC [1, 8]: 12.5 mg/L (≈ 41.1 µM)
- MIC ([2]; ATCC16404, read-out: MIC): 3.12 mg/L (≈ 10.2 µM)
- MIC ([3]; NRRLY112, read-out: MIC): 6.25 mg/L (≈ 20.5 µM)
- MIC ([4]; ATCC38247, read-out: MIC): 3.12 mg/L (≈ 10.2 µM)
- MIC ([5]; ATCC62376, read-out: MIC): 6.25 mg/L (≈ 20.5 µM)
- MIC [6, 9]: 6.25 mg/L (≈ 20.5 µM)
- MIC ([7]; ATCC10231, read-out: MIC): 1.56 mg/L (≈ 5.12 µM)
- MIC (Candida kefyr ATCC 28838; [10]): 1.56 mg/L (≈ 5.12 µM)
- MIC (Candida albicans 579A; read-out: MIC): 3.12 mg/L (≈ 10.2 µM)

Molecule: [O-][S+]1c2ccccc2SN1CCCc1ccccc1 (stereo not drawn) [Example 39, 2-(3-phenylpropyl)-1,3,2-benzodithiazole-1-oxide]
- MIC (Candida albicans CCH 442; CCH442, read-out: MIC): 3.12 mg/L (≈ 10.8 µM)
- MIC [1, 8]: 25 mg/L (≈ 86.4 µM)
- MIC ([2]; ATCC16404, read-out: MIC): 1.56 mg/L (≈ 5.39 µM)
- MIC ([3]; NRRLY112, read-out: MIC): 6.25 mg/L (≈ 21.6 µM)
- MIC ([4]; ATCC38247, read-out: MIC): 12.5 mg/L (≈ 43.2 µM)
- MIC ([5]; ATCC62376, read-out: MIC): 3.12 mg/L (≈ 10.8 µM)
- MIC [6, 9]: 3.12 mg/L (≈ 10.8 µM)
- MIC ([7]; ATCC10231, read-out: MIC): 1.56 mg/L (≈ 5.39 µM)
- MIC (Candida kefyr ATCC 28838; [10]): 1.56 mg/L (≈ 5.39 µM)
- MIC (Candida albicans 579A; read-out: MIC): 3.12 mg/L (≈ 10.8 µM)
